Data: patent US10609926B2, “Synergistic herbicidal composition” (JIANGSU ROTAM CHEMISTRY CO., LTD, priority 2016, dated 2020)

Test system: gramineous weeds, broadleaf weeds and sedge weeds
Assay: Post-emergence weed control efficacy test (potted plants, stem and leaf treatment; Colby evaluation)
Type: in vivo
Description: The desired efficacy of the combination of three active compounds can be calculated through “Colby formula” as follows (S. R. Colby, “Calculating Synergistic and Antagonistic Responses of Herbicide Combinations, Weeds 1967, 15, 20-22): if
E0 is the anticipated activity of active compounds A, B and C when used in an amount of m, n, h g/ha or concentrate of m, n, h ppm, E0=A×B×C/(100^(N-1))
If the observed actual activity E is greater than the anticipated activity (E0), then the composition has synergistic effect.
If the observed actual efficiency of weed control (E) through the biology test is greater than the anticipated value (E0) as calculated via Colby's equation, then it represents that the efficacy of herbicidal composition is greater than the sum of efficacy of each component, which means the composition has synergistic effect.
Use stem and leaf treatment for potted grown plant(NY/T 1155.4-2006): fill a plastic pot (6 cm height, 9 cm diameter) with a quantity of soil and sow 15 to 20 seeds of monocotyledonous weeds and dicotyledonous weeds in the plastic pot, cover it with 0.5 to 1 cm thick of fine soil and then put it in greenhouse for cultivation. When weeds grow to the 2 to 4 leave stage, conduct the stem and leaf spray treatment with 1 mL herbicidal solution on each pot and repeat four times for each treatment and leave some pots untreated as control group. Keep the treated pots in a greenhouse for cultivation and observe the growing status of target weeds periodically. Conduct the visual test on the target weeds regarding the damage symptoms and growth inhibition effect after 21 days. Weigh up the fresh weight above the ground or plant fresh weight and evaluate the toxicity of the herbicidal formulation on target weeds based on the fresh weight inhibition rate of the target.
Prepare the following formulations according to specific weight percentages: 1. Pyroxasulfone; 2. Topramezone; 3 Atrazine; 4. Pyroxasulfone+Topramezone; 5. Pyroxasulfone+Atrazine; 6. Topramezone+Atrazine; 7. Pyroxasulfone+Topramezone+Atrazine. After that, dilute above formulations with water to obtain diluted formulations.
Conduct visual assessment the damage symptom and growth inhibition status of target weeds after 21 days. Weigh up the fresh weight above the ground and calculate the inhibition rate of fresh weight (%).
Anticipated effects of the special combined three active components can be calculated through so called “Colby formula”. If the actual efficiency of weed control observed during the biology test exceeds the anticipated value […] calculated by Colby's formula, then it represents that the efficacy of herbicidal composition is greater than the sum of efficacy of each component, which means the composition has synergistic effect.
The synergistic herbicidal composition of present invention has conducted test on the following important harmful plants (gramineous weeds, broadleaf weeds, sedge weeds) with wide herbicidal spectrum: Echinochloa oryzicola, Digitaria spp., Stellaria media, Amaranthus retroflexus, Fallopia (ex Polygonum) Convolvulus, Abuthilon theophrasti, Sagittariatrifolia, Oriental Waterplantain Rhizome, Herb of Pygmy Arrowhead, Monochoria korsakowii, Lindernia procumbens, Solanum nigrum L., Scirpus juncoides Roxb, Cyperus difformis L., Chenopodium alum L., Avena fatua L. and Galium aparine L. var. tenerum Gren. et (Godr.) Rebb.

`CCNc1nc(Cl)nc(NC(C)C)n1` [Atrazine, 2-chloro-4-ethylamino-6-isopropylamino-1,3,5-triazine] gave an Actual survival rate (application rate 1 g/ha) of 100%, an Actual survival rate (application rate 50 g/ha) of 100% and an Actual survival rate (application rate 100 g/ha) of 67%.

With `Cn1nc(C(F)(F)F)c(CS(=O)(=O)C2=NOC(C)(C)C2)c1OC(F)F` [Pyroxasulfone, 3-[5-(difluoromethoxy)-1-methyl-3-(trifluoromethyl)pyrazol-4-ylmethylsulfonyl]-4,5-dihydro-5,5-dimthyl-1,2-oxazole] the Actual survival rate (application rate 1 g/ha) was 89%, the Actual survival rate (application rate 5 g/ha) was 78% and the Actual survival rate (application rate 10 g/ha) was 60%.

For `Cc1c(C(=O)c2cnn(C)c2O)ccc(S(C)(=O)=O)c1C1=NOCC1` [Topramezone, [3-(4,5-dihydro-3-isoxazolyl)-2-methyl-4-(methylsulfonyl)phenyl](5-hydroxy-1-methyl-1H-pyrazol-4-yl)methanone], the Actual survival rate (application rate 1 g/ha) was 87.8%, the Actual survival rate (application rate 25 g/ha) was 24.5% and the Actual survival rate (application rate 50 g/ha) was 12.8%.
